Data on three molecules can be found in patent publication US20050215582A1, “Substituted pyrrolopyridines” (priority 2002, published 2005).

Molecules are shown by their SMILES. Where a name gives a salt, the structure may show the parent alone.

As usually defined, the IC50 is the concentration at which inhibition is half-maximal.

The assay concerns the target T1, recombinant human Itk kinase domain fused with GST (Homo sapiens, UniProt Q08881).
T1 construct: recombinant human Itk kinase domain fused with GST; GST (Glutathione S-Transferase); made in house; host or cells: High five insect cells
T1 sequence (Q08881 363-615 limits assumed): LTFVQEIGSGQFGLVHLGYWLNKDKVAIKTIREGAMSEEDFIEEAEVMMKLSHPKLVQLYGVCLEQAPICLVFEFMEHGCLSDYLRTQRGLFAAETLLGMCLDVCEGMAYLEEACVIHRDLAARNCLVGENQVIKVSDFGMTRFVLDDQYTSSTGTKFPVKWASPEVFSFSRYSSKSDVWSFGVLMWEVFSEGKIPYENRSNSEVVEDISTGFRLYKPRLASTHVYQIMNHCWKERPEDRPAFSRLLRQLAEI
Nature of the assay: Itk LANCE TRF Assay. The class given is biochemical. The following applies: 50 μM ATP, 2 μM biotinylated peptide substrate, 50 minutes RT; read-out: Inhibition of Kinase Itk (IC50 μM). As to the method: The Itk kinase assay utilized recombinant human Itk kinase domain fused with GST (Glutathione S-Transferase). The protein was expressed in High five insect cells, purified in one step on an affinity chromatography glutathione column and stored in 50 mM Tris/HCl (pH 7.6), 150 mM NaCl, 5% (w/v) mannitol, 1 mM DTT, 30% glycerol at −70° C. The kinase substrate used in the assay was a biotinylated peptide derived from the Src-optimal substrate (Nair et at, J. Med. Chem., 38: 4276, 1995; biotin-AEEEIYGEFEAKKKK).
The assay additions were as follows: Test compounds (or controls; 1 μL in 100% DMSO) were added to black 96-well flat-bottomed plates (Greiner 655076) followed by 20 μL Itk in assay buffer and the reaction was started by adding 20 μL ATP and peptide substrate in assay buffer. The assay buffer constitution during phosphorylation was: 50 mM HEPES (pH 6.8), 10 mM MgCl2, 0.015% Brij 35, 1 mM DTT, 10% glycerol, 160 ng/well Itk, 2 μM peptide substrate and 50 μM ATP. The assay was stopped after 50 minutes (RT) by adding 150 μL ice-cold Stop solution (50 mM Tris/HCl, pH 7.5, 10 mM EDTA, 0.9% NaCl and 0.1% BSA) together with LANCE reagents (2 nM PT66-Eu^3+, Wallac AD0069 and 5 μg/ml Streptavidin-APC, Wallac AD0059. Both concentrations were final in stopped assay solution). The plates were measured on a Wallac 1420 Victor 2 instrument with TRF settings after 1 h incubation, and the ratio (665 signal/615 signal)*10000 was used to calculate the inhibition values. IC50 values were determined using XLfit.
(In general: TR-FRET usually uses a lanthanide donor and a delayed reading to cut background.)
As for `Cc1cnc2[nH]c(-c3ccco3)c(C3CCCN(C(N)=O)C3)c2c1` (stereo not drawn) [Example 5, 3-[2-(2-Furyl)-5-methyl-1H-pyrrolo[2,3-b]pyridin-3-yl]piperidine-1-carboxamide], the IC50 is 0.26 µM.
With `CN(C)CCCOc1ccc(-c2[nH]c3ncc(Cl)cc3c2C2CCNCC2)cc1` [Example 8, {3-[4-(5-Chloro-3-piperidin-4-yl-1H-pyrrolo[2,3-b]pyridin-2-yl)phenoxy]propyl}dimethylamine], the concentration for half-maximal inhibition (IC50) was found to be 0.18 µM.
Then `COc1ccc(-c2[nH]c3ncc(Br)cc3c2N2CCNCC2)cc1` [Example 21, 5-Bromo-2-(4-methoxy-phenyl)-3-piperazin-1-yl-1H-pyrrolo[2,3-b]pyridine trifluoroacetate], with 0.09 µM.
